Experimental data taken from patent US11298363B2, “Triazolobenzazepines as vasopressin V1a receptor antagonists” (RICHTER GEDEON NYRT., priority 2017, dated 2022).
Marks after values point to notes of the source that are not given here.

Assays:
[1] = molecular target: human vasopressin V2 receptor (Homo sapiens, UniProt P30518); assay: Human vasopressin V2 receptor binding assay on 1321N1 cell line; conditions: for inhibition at 1 µM: read-out: inhibition % at 1 μM on hV2 1321N1 cell line; for Ki: 1321N1 cell line, read-out: Ki on hV2 1321N1 cell line
Method: Human Vasopressin V2 Receptor Binding Assay Cells and Radioligand
(§1) To determine the final affinity value, the results of at least two independent experiments were taken into account.
(§2) Non-specific binding values were determined in the presence of an unlabeled 1.2×10^−6 M (Arg^8)-vasopressin. Samples were incubated in a total volume of 0.55 ml for 90 minutes at 27° C. Membrane-bound and free ligands were separated by filtration through a 0.5% polyethyleneimine-impregnated UniFilter® GF/B™. After drying the filter plates, 40 μl Microscint-20 (Packard) scintillation cocktail was added to the samples. Finally, radioactivity was measured using MicroBeta^2 Microplate Counter (Perkin Elmer).
(§3) The radioligand displacement ability of a substance is determined in at least two independent experiments. Specific radioligand binding can be defined as the difference between total and non-specific binding in the presence of a saturation amount of the unlabeled ligand or different concentrations of the substance to be tested. The results are given as a percentage of inhibition of the specific binding achieved in the presence of the substance to be tested.
During fitting, the asymptotes are not fixed. The Ki values (inhibition constant) are given with Cheng-Prusoff equation Ki=IC50/[1+(L/KD)] wherein [L] is the radioligand concentration used in the experiment and [KD] is the affinity of the radioactively labelled ligand for the given receptor. The KD is determined beforehand using the Scatchard curve.

[2] = molecular target: T1, human vasopressin V1a receptor (Homo sapiens, UniProt P37288); assay: Human vasopressin V1a receptor binding assay; conditions: 1321N1 cell membranes, [3H]vasopressin; read-out: Ki (nM) on hV1a cell line
Procedure, shortened: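 Radioligand competition on membranes from cells expressing human V1a receptor; incubation 60 minutes at 27° C., non-specific binding with 1.2×10^−6 M unlabeled (Arg^8)-vasopressin, filtration separation. Ki by Cheng-Prusoff using Scatchard-derived KD, from at least two independent experiments.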

[3] = molecular target: T1, human vasopressin V1a receptor; assay: Functional assay on human vasopressin V1a receptor expressing cell line (intracellular Ca2+ fluorescence); assay type: cell-based; conditions: 1321N1 cells, (Arg8)-vasopressin at EC80; read-out: IC50 (nM) on hV1a cell line
[4] = molecular target: mouse V1a receptor (Mus musculus, UniProt Q62463); assay: Functional V1a in vivo test: inhibition of oxytocin-induced scratching behaviour; conditions: mice
Method: Functional V1a In Vivo Test
Male mice (NMRI, ToxiCoop) weighing 18-40 g were used. Animals were kept at least 5 days after delivery, during housing and measurements they were fed and drink ad libitum. The experiments were permitted by the Local Animal Protection Committee and carried out in accordance with the European Animal Protection Directives (EU Directive 2010/63/EU).
Animal behaviour was measured by an automated behavioral analysis system (LABORAS™). The sensors located below platforms detect the mechanical vibration generated by the movement of animal, and transform into an electrical signal (Quinn et al., J Neurosci Methods 2003, 130:83-92). After analyzing signals, the system analyzes the time spent with the following behavioral parameters: locomotion, immobility, climbing, grooming. The grooming algorithm by definition is able to measure the scratching behavioral response. During the experiment, mice were pretreated with the test substance or vehicle, and after the pretreatment period scratching-inducing compound (s.c. 0.3 mg/kg oxytocin) was administered, and then the animals were individually placed into measuring cages. […] To reduce the exploratory activity, the animals were measured after a 1-hour habituation to the cage. The behavioural parameters were compared to the parallel measured parameters of the control animals.
The behavioural inhibitory effect of the substances was calculated with average values of parallel measured vehicle treated groups and presented as the percentage of inhibition: 0% was expressed as average value of scratching behaviour of vehicle pretreated animals (and phys. saline s.c. pretreated with vehicle), while 100% was expressed as average value of scratching of vehicle pretreated animals that received oxytocin subcutaneously. For statistical analysis one-way analysis of variance (ANOVA) with Tukey post hoc test were used.

[5] = molecular target: mouse vasopressin V1a receptor (Mus musculus, UniProt Q62463); assay: Mouse vasopressin V1a receptor binding assay; conditions: 1321N1 cell membranes; read-out: Ki (nM) on mV1a cell line
Excerpt: Mouse Vasopressin V1a Receptor Binding Assay Cells and Radioligand
The immortalized 1321N1 cell line (B9/1321N1 clone) constitutively and stably expressing Mouse vasopressin V1a receptor vasopressin (8-L-Arginine), [Phenylalanyl-3,4,5-^3H(N)] labelled compound (Perkin Elmer Life and Analytical Sciences) as radioligand were used to determine the affinity of the prepared compounds.
Membrane-preparation: Membrane preparation of immortalized 1321N1 cells expressing the propagated mouse Vasopressin V1a receptor was made according to Jarvis's method (Jarvis et al., J Pharmacol Exp Ther […], 310:407-16). Cells were suspended in preparative buffer (50 mM Tris, 1 mM EDTA, 0.1 mM PMSF) and homogenized with glass homogenizing potter. To separate the raw membrane fraction two consecutive centrifugation procedures (40,000 g for 25 minutes at 4° C.) were executed, then the membrane was taken into the preparatory buffer during a final washing step, it was divided into aliquots which were stored at −80° C. until the time of measurement.
The protein content of the prepared membrane was determined according to Lowry's method using standard dilution line of bovine serum albumin (BSA) (Lowry et al., J Biol Chem 1951, 193:265-75).
as §1
as §2, with “0.33” for “0.55”, “60” for “90”, “GF/B™” for “GF/B™.”
as §3, with “clamping” for “displacement”
The IC50 data (i.e. the concentration of the unknown substance which displaces 50% of specific bound radioligand) is calculated from the concentration-displacement curve using the sigmoid fitting mathematical method y=(A1−A2)/(1+(x/x0)p)+A2 with Origin 7.5. software (OriginLab Corporation, Northampton, USA). During fitting, the asymptotes are not fixed. The Ki values (inhibition constant) are given with Cheng-Prusoff equation Ki=IC50/[1+(L/KD)] wherein [L] is the radioligand concentration used in the experiment and [KD] is the affinity of the radioactively labelled ligand for the given receptor. The KD is determined beforehand using the Scatchard curve.

[6] = test system: Prenatally valproate-treated rats; assay: Prenatal valproate model of ASD, social memory recognition paradigm; assay type: in vivo, rat; conditions: VPA rats
Method: (§4) The Prenatal Valproate Model of Autism Spectrum Disorder (ASD) in Rats
(§5) The prenatal valproate model has excellent construct and face validity, thus it is a widely accepted animal model of ASD (Christensen et al, JAMA 2013, 309:1696-1703; Roullet et al, Neurotoxicol Teratol. 2013, 36:45-56). In this model, time-mated female Wistar rats (Harlan, UK) were treated with single-dose of valproic acid (VPA, i.p. 600 mg/kg) on 12.5 days of pregnancy. After birth and separation, the examined male offsprings were kept under standard laboratory conditions until completion of the studies. Four animals were kept together in standard cages at 22-24° C. external temperature and in 12-12 hour light-dark cycle (07.30 a.m.-07.30 p.m.). Food and water were available ad libitum. After once daily treatment with the test substance for 7 days and pretreatment on the day of measurement, the behaviour of the rats was assessed in the social preference test on the 59th or 60th postnatal day. The social preference test is a largely accepted test method for determining the autistic behaviour of rodents (Nadler et al, Genes Brain Behav 2004, 3:303-314; Bambini-Junior et al, Brain Res 2011, 1408:8-16). The test consists of two paradigms, the first is the social approach avoidance test. In this paradigm the social behaviour of examined animals can be determined with a special three-chamber apparatus. In the apparatus, the contact behaviour of the conspecific and empty separated area surrounded with a perforated wall can be examined and compared. […] One day later, on the 60th postnatal day, rats were tested in the social memory and recognition paradigm. In this, the contact behaviour with a new, previously unknown conspecific can be measured compared to a familiar conspecific.
Unexpectedly, the treatment reversed the value of VPA/VEH to the value of VEH/VEH treated animals.

[7] = test system: Prenatally valproate-treated rats; assay: Prenatal valproate model of ASD, social approach avoidance paradigm; assay type: in vivo, rat; conditions: VPA rats
Method: as §4, §5

[8] = after i.p. treatment (table title: 10 mg/kg)
[9] = 5 mg/kg i.p., VEH/VEH = 100%, VPA/VEH = 0%

Sequence of human vasopressin V2 receptor (P30518 whole entry): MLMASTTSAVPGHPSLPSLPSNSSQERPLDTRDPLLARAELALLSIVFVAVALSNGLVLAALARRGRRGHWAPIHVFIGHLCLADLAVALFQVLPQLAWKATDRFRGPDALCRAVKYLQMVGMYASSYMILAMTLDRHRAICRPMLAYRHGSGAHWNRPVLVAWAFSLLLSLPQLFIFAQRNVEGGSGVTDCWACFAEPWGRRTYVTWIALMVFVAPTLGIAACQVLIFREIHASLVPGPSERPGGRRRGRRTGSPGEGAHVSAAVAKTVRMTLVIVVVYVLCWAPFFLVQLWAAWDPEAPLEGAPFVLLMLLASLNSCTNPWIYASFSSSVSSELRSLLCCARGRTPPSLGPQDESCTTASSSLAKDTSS
T1 sequence (P37288 whole entry): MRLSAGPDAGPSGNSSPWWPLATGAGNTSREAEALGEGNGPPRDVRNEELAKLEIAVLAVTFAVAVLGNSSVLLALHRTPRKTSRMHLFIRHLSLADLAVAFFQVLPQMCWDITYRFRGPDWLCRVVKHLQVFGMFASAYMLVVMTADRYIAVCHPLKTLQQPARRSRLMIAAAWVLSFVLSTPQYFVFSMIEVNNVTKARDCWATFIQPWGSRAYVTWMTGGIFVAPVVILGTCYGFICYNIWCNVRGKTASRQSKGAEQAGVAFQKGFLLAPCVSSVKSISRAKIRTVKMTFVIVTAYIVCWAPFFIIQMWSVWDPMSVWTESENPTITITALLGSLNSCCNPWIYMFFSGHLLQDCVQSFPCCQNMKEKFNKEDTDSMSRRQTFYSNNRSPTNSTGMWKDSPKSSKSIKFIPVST
Sequence of mouse vasopressin V1a receptor (Q62463 whole entry): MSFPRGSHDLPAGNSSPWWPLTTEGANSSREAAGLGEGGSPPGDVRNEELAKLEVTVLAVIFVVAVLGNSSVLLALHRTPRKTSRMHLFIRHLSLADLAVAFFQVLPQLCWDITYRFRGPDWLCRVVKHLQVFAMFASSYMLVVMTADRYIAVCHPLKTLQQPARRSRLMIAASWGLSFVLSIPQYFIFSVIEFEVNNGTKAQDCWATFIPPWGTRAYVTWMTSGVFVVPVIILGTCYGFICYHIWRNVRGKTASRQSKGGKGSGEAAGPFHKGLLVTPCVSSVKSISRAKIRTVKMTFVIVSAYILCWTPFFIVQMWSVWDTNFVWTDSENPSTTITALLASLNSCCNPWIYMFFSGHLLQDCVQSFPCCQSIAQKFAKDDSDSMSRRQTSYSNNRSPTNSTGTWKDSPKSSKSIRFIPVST
Sequence of mouse V1a receptor (Q62463 whole entry): as above

Compound | Ki [2] [nM] | IC50 [3] [nM] | Ki [1] [nM] | other results
CN(C1Cc2cc(Cl)ccc2-n2c(nnc2[C@H]2CC[C@H](Oc3ccccn3)CC2)C1)S(C)(=O)=O (stereo partly drawn) [Example 19, N-{8-chloro-1-[trans-4-pyridin-2-loxcyclohexyl]-5,6-dihydro-4H-[1,2,4]triazolo[4,3-a][1]benzazepin-5-yl}-N-methylmethanesulfonamide] | 0.4 | 1.8 | 610 | –
CNC1Cc2cc(Cl)ccc2-n2c(nnc2[C@H]2CC[C@H](Oc3ccccn3)CC2)C1 (stereo partly drawn) [Example 21, 8-chloro-N-methyl-1-[trans-4-(pyridin-2-yloxy)cyclohexyl]-5,6-dihydro-4H-[1,2,4]triazolo[4,3a][1]benzazepine-5-amine] | 0.7 | 4 | – | inhibition at 1 µM [1]: 35%
CC(C)NC1Cc2cc(Cl)ccc2-n2c(nnc2[C@H]2CC[C@H](Oc3ccccn3)CC2)C1 (stereo partly drawn) [Example 24, 8-chloro-N-(propan-2-yl)-1-[trans-4-(pyridin-2-yloxy)cyclohexyl]-5,6-dihydro-4H-[1,2,4]triazolo[4,3-a][1]benzazepine-5-amine] | 1 | 7 | – | inhibition (%) of oxytocin-induced scratching behaviour response [4, 8]: 94* %; Ki [5]: 25 nM
FC(F)(F)c1ccc2c(c1)CC1(Cc3nnc([C@H]4CC[C@H](Oc5ccccn5)CC4)n3-2)OCCO1 [Example 47] | 0.8 | 2.3 | 366 | –
Clc1ccc2c(c1)CC1(Cc3nnc([C@H]4CC[C@H](Oc5ccccn5)CC4)n3-2)OCCO1 [Example 53, 8′-chloro-1′-[trans-4-(pyridin-2-yloxy)cyclohexyl]-4′H,6′H-spiro[1,3-dioxolane-2,5′-[1,2,4]triazolo[4,3-a][1]benzazepine]] | – | – | – | inhibition (%) of oxytocin-induced scratching behaviour response ([4]; 10 mg/kg p.o. pretreatment): 118%; Ki [5]: 1.1 nM
O=C(CCCCCCC(=O)Nc1ccccc1)NO [SAHA, suberoil anilide, reference compound] | – | – | – | social memory recognition active novelty contact time ([6]; 5 mg/kg i.p., mean ± S.E.M.): 155.5 ± 5.8 s; social memory recognition % effect [6, 9]: 137%; active time spent with seeking response towards new animal ([6]; result in words): statistically significant increase; social approach avoidance active contact time ([7]; 5 mg/kg i.p., mean ± S.E.M.): 156.0 ± 6.7 s; social approach avoidance % effect [7, 9]: 115%; time spent with social seeking response / social behaviour ([7]; result in words): statistically significant increase

Continued, in another order:

Ki [2] [nM] | IC50 [3] [nM] | Ki [1] [nM] | Compound | other results
6 | 95 | – | CC(C)(C)OC(=O)NC1Cc2cc(Cl)ccc2-n2c(nnc2C2CCN(c3ccccn3)CC2)C1 (stereo not shown) [Example 1, Tert-butyl [8-chloro-1-[1-(pyridin-2-yl)piperidin-4-yl]-5,6-dihydro-4H-[1,2,4]triazolo[4,3-a][1]benzazepin-5-yl]carbamate] | inhibition at 1 µM [1]: 4%
2 | 9 | – | NC1Cc2cc(Cl)ccc2-n2c(nnc2[C@H]2CC[C@H](Oc3ccccn3)CC2)C1 (stereo partly drawn) [Example 6, 8-chloro-1-[trans-4-(pyridin-2-yloxy)cyclohexyl]-5,6-dihydro-4H-[1,2,4]triazolo[4,3-a][1]benzazepine-5-amine] | inhibition at 1 µM [1]: 3%
0.5 | 1.6 | 255 | CS(=O)(=O)NC1Cc2cc(Cl)ccc2-n2c(nnc2[C@H]2CC[C@H](Oc3ccccn3)CC2)C1 (stereo partly drawn) [Example 18, N-{8-chloro-1-[trans-4-(pyridin-2-yloxy)cyclohexyl]-5,6-dihydro-4H-[1,2,4]triazolo[4,3-a][1]benzazepin-5-yl}methanesulfonamide] | –
0.7 | 1 | 365 | CN(C)S(=O)(=O)NC1Cc2cc(Cl)ccc2-n2c(nnc2[C@H]2CC[C@H](Oc3ccccn3)CC2)C1 (stereo partly drawn) [Example 20, N′-{8-chloro-1-[trans-4-(pyridin-2-yloxy)cyclohexyl]-5,6-dihydro-4H-[1,2,4]triazolo[4,3-a][1]benzazepin-5-yl}-N,N-dimethylsulfamide] | –
2.3 | 23 | – | CC(C)N[C@H]1Cc2cc(Cl)ccc2-n2c(nnc2[C@H]2CC[C@H](Oc3ccccn3)CC2)C1 [Example 25] | inhibition (%) of oxytocin-induced scratching behaviour response [4, 8]: 42* %; Ki [5]: 353 nM
